Measurements as given in patent US12528814B2, “Bifunctional degraders of interleukin-1 receptor-associated kinases and therapeutic use thereof” (NURIX THERAPEUTICS, INC., priority 2020, dated 2026).
pIC50: −log10 of the molar value. Like-named read-outs stand apart in the source and are kept apart here.

Legend:
IRAK4 [1] = target: T1, IRAK4 (Homo sapiens (Human), UniProt Q9NWZ3); test: IRAK4 Biochemical HTRF Kinase Assay; conditions: read-out: IRAK4 HTRF biochemical: IC50
Procedure: IRAK4 Biochemical HTRF Kinase Assay
The binding capacities of certain bifunctional compounds of Formula (I) were determined using the CisBio HTRF KinEASE STK S1 Kit (#62ST1PEB, contains 5× Kinase buffer, 1× Detection Buffer, anti-phospho-serine/threonine-cryptate, Streptavidin-XL665, and STK-S1), which measures the phosphorylation of a biotinylated peptide substrate by IRAK4, according to the manufacturer's protocol. […] 2 μl of a reaction solution containing 5 μM STK-S1, 10 mM ATP, and 10 mM MgCl2 were added to each well to a final volume of 10 μl. Assay controls include wells containing kinase with no compound (DMSO only) and wells containing no kinase and no compound (DMSO only). The reactions were allowed to proceed at ambient temperature for 90 minutes. […] The plates were incubated for 60 minutes at ambient temperature and then read on an Envision Multilabel Reader (PerkinElmer). […] For IC50 determination, the compounds were tested at sixteen concentrations in duplicate and curve-fitting was performed by non-linear regression analysis using GraphPad Priam.
Target sequence in this assay (Q9NWZ3 whole entry, species assumed): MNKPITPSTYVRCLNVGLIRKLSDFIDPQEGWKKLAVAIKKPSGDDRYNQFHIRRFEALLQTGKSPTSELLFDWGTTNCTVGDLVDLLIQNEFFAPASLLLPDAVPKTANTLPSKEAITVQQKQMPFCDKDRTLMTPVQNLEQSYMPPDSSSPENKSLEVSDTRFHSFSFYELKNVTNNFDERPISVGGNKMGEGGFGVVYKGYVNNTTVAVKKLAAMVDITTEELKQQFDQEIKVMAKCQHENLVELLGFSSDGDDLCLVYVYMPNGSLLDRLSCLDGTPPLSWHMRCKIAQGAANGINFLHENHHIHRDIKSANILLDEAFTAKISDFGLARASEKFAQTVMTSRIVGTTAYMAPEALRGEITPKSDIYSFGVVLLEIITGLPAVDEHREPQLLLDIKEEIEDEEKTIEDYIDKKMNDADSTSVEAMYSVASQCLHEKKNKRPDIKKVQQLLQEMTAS

IRAK4 [2] = target: T1, IRAK4; test: IRAK4 Degradation HiBiT Assay; conditions: HiBiT-tagged Jurkat cells, 4 hrs; for Dmax: Jurkat; for DC50: read-out: Cellular IRAK4 HiBiT: DC50
Target sequence in this assay (Q9NWZ3 whole entry): as the sequence (Q9NWZ3 whole entry, species assumed) above

[3] = read-out: Cellular IRAK4 HiBiT: Dmax, Table 4
[4] = read-out: Cellular IRAK4 HiBiT: Dmax, Table 5, multiple runs

| Compound | pIC50 (IRAK4 [1]; Table 4) | pIC50 (IRAK4 [1]; Table 5, multiple runs) | Dmax (IRAK4 [2]; [3]) [%] | Dmax (IRAK4 [2]; [4]) [%] | DC50 (IRAK4 [2]; Table 4) [nM] | DC50 (IRAK4 [2]; Table 5, multiple runs) [nM] |
| --- | --- | --- | --- | --- | --- | --- |
| CC(C)Nc1cc(-c2ccc3cc(C#N)cnn23)ncc1-c1nnc(N2CCN(C(=O)CCCCCNc3cccc4c3C(=O)N(C3CCC(=O)NC3=O)C4=O)CC2)s1 (stereo not drawn) [Example 9, 7-(5-(5-(4-(6-((2-(2,6-dioxopiperidin-3-yl)-1,3-dioxoisoindolin-4-yl)amino)hexanoyl)piperazin-1-yl)-1,3,4-thiadiazol-2-yl)-4-(isopropylamino)pyridin-2-yl)pyrrolo[1,2-b]pyridazine-3-carbonitrile] | 8.54 | 8.54 | 125 | 125 | 218 | 217 |
| CC(C)Nc1cc(-c2ccc3cc(C#N)cnn23)ncc1-c1nnc(N2CCN(C(=O)CCOCCNc3ccc4c(c3)C(=O)N(C3CCC(=O)NC3=O)C4=O)CC2)s1 (stereo not drawn) [Example 10, 7-(5-(5-(4-(3-(2-((2-(2,6-dioxopiperidin-3-yl)-1,3-dioxoisoindolin-5-yl)amino)ethoxy)propanoyl)piperazin-1-yl)-1,3,4-thiadiazol-2-yl)-4-(isopropylamino)pyridin-2-yl)pyrrolo[1,2-b]pyridazine-3-carbonitrile] | 9.00 | 9.00 | 103 | 103 | 49.1 | 49.1 |
| CC(C)Nc1cc(-c2ccc3cc(C#N)cnn23)ncc1-c1nnc(N2CCN(C(=O)CCOCCOCCOCCNc3cccc4c3C(=O)N(C3CCC(=O)NC3=O)C4=O)CC2)s1 (stereo not drawn) [Example 11, 7-(5-(5-(4-(3-(2-(2-(2-((2-(2,6-dioxopiperidin-3-yl)-1,3-dioxoisoindolin-4-yl)amino)ethoxy)ethoxy)ethoxy)propanoyl)piperazin-1-yl)-1,3,4-thiadiazol-2-yl)-4-(isopropylamino)pyridin-2-yl)pyrrolo[1,2-b]pyridazine-3-carbonitrile] | 8.89 | 8.89 | 104 | 104 | 128 | 128 |
| CC(C)Nc1cc(-c2ccc3cc(C#N)cnn23)ncc1-c1nnc(N2CCN(C(=O)C3CCN(C[C@H]4CCN(c5ccc6c(c5)C(=O)N(C5CCC(=O)NC5=O)C6=O)C4)CC3)CC2)s1 (stereo partly drawn) [Example 12, 7-(5-(5-(4-(1-(((3R)-1-(2-(2,6-dioxopiperidin-3-yl)-1,3-dioxoisoindolin-5-yl)pyrrolidin-3-yl)methyl)piperidine-4-carbonyl)piperazin-1-yl)-1,3,4-thiadiazol-2-yl)-4-(isopropylamino)pyridin-2-yl)pyrrolo[1,2-b]pyridazine-3-carbonitrile] | 8.92 | 8.92 | 92 | 91 | 108 | 98.1 |
| CC(C)Nc1cc(-c2ccc3cc(C#N)cnn23)ncc1-c1nnc(N2CCN(C(=O)CCN3CCN(c4ccc5c(c4)C(=O)N(C4CCC(=O)NC4=O)C5=O)CC3)CC2)s1 (stereo not drawn) [Example 14, 7-(5-(5-(4-(3-(4-(2-(2,6-dioxopiperidin-3-yl)-1,3-dioxoisoindolin-5-yl)piperazin-1-yl)propanoyl)piperazin-1-yl)-1,3,4-thiadiazol-2-yl)-4-(isopropylamino)pyridin-2-yl)pyrrolo[1,2-b]pyridazine-3-carbonitrile] | 9.10 | 9.10 | 99 | 97 | 42.7 | 37.2 |
| CC(C)Nc1cc(-c2ccc3cc(C#N)cnn23)ncc1-c1nnc(N2CCN(C(=O)CN3CCC4(CC3)CN(c3ccc5c(c3)C(=O)N(C3CCC(=O)NC3=O)C5=O)C4)CC2)s1 (stereo not drawn) [Example 15, 7-(5-(5-(4-(2-(2-(2-(2,6-dioxopiperidin-3-yl)-1,3-dioxoisoindolin-5-yl)-2,7-diazaspiro[3.5]nonan-7-yl)acetyl)piperazin-1-yl)-1,3,4-thiadiazol-2-yl)-4-(isopropylamino)pyridin-2-yl)pyrrolo[1,2-b]pyridazine-3-carbonitrile] | 9.00 | 9.00 | 81 | 85 | 82.7 | 86.9 |
| CC(C)Nc1cc(-c2ccc3cc(C#N)cnn23)ncc1-c1nnc(N2CCN(CCC3CCN(c4ccc5c(c4)C(=O)N(C4CCC(=O)NC4=O)C5=O)CC3)CC2)s1 (stereo not drawn) [Example 16, 7-(5-(5-(4-(2-(1-(2-(2,6-dioxopiperidin-3-yl)-1,3-dioxoisoindolin-5-yl)piperidin-4-yl)ethyl)piperazin-1-yl)-1,3,4-thiadiazol-2-yl)-4-(isopropylamino)pyridin-2-yl)pyrrolo[1,2-b]pyridazine-3-carbonitrile] | 8.77 | 8.77 | 62 | 53 | 127 | 190 |
| CC(C)Nc1cc(-c2ccc3cc(C#N)cnn23)ncc1-c1nnc(N2CCN(C3CCN(C[C@H]4CCN(c5ccc6c(c5)C(=O)N(C5CCC(=O)NC5=O)C6=O)C4)CC3)CC2)s1 (stereo partly drawn) [Example 17, 7-(5-(5-(4-(1-(((3R)-1-(2-(2,6-dioxopiperidin-3-yl)-1,3-dioxoisoindolin-5-yl)pyrrolidin-3-yl)methyl)piperidin-4-yl)piperazin-1-yl)-1,3,4-thiadiazol-2-yl)-4-(isopropylamino)pyridin-2-yl)pyrrolo[1,2-b]pyridazine-3-carbonitrile] | 8.85 | 8.85 | 69 | 77 | 139 | 168 |
| CC(C)Nc1cc(-c2ccc3cc(C#N)cnn23)ncc1-c1nnc(N2CCN(C3CCN(Cc4ccc5c(c4)C(=O)N(C4CCC(=O)NC4=O)C5=O)CC3)CC2)s1 (stereo not drawn) [Example 18, 7-(5-(5-(4-(1-((2-(2,6-dioxopiperidin-3-yl)-1,3-dioxoisoindolin-5-yl)methyl)piperidin-4-yl)piperazin-1-yl)-1,3,4-thiadiazol-2-yl)-4-(isopropylamino)pyridin-2-yl)pyrrolo[1,2-b]pyridazine-3-carbonitrile] | 8.72 | 8.72 | 88 | 87 | 123 | 113 |
| CC(C)Nc1cc(-c2ccc3cc(C#N)cnn23)ncc1-c1nnc(N2CCN(C[C@H]3CCN(c4ccc5c(c4)C(=O)N(C4CCC(=O)NC4=O)C5=O)C3)CC2)s1 (stereo partly drawn) [Example 19, 77-(5-(5-(4-(((3R)-1-(2-(2,6-dioxopiperidin-3-yl)-1,3-dioxoisoindolin-5-yl)pyrrolidin-3-yl)methyl)piperazin-1-yl)-1,3,4-thiadiazol-2-yl)-4-(isopropylamino)pyridin-2-yl)pyrrolo[1,2-b]pyridazine-3-carbonitrile] | 8.66 | 8.66 | 79 | 67 | 90.1 | 90.6 |
| CC(C)Nc1cc(-c2ccc3cc(C#N)cnn23)ncc1-c1nnc(N2CCN(Cc3ccc4c(c3)C(=O)N(C3CCC(=O)NC3=O)C4=O)CC2)s1 (stereo not drawn) [Example 20, 7-(5-(5-(4-((2-(2,6-dioxopiperidin-3-yl)-1,3-dioxoisoindolin-5-yl)methyl)piperazin-1-yl)-1,3,4-thiadiazol-2-yl)-4-(isopropylamino)pyridin-2-yl)pyrrolo[1,2-b]pyridazine-3-carbonitrile] | 8.70 | 8.70 | 29 | 29 | 654 | 660 |
| CC(C)Nc1cc(-c2ccc3cc(C#N)cnn23)ncc1-c1nnc(N2CCN(C(=O)C3CCN(CC4CCN(c5ccc6c(=O)n(C7CCC(=O)NC7=O)ccc6c5)CC4)CC3)CC2)s1 (stereo not drawn) [Example 21, 7-(5-(5-(4-(1-((1-(2-(2,6-dioxopiperidin-3-yl)-1-oxo-1,2-dihydroisoquinolin-6-yl)piperidin-4-yl)methyl)piperidine-4-carbonyl)piperazin-1-yl)-1,3,4-thiadiazol-2-yl)-4-(isopropylamino)pyridin-2-yl)pyrrolo[1,2-b]pyridazine-3-carbonitrile] | 9.30 | 9.30 | 103 | 101 | 251 | 251 |
| CC(C)Nc1cc(-c2ccc3cc(C#N)cnn23)ncc1-c1nnc(N2CCC(NCC3CCN(c4ccc5c(c4)C(=O)N(C4CCC(=O)NC4=O)C5=O)CC3)CC2)s1 (stereo not drawn) [Example 22, 7-[5-(5-{4-[({1-[2-(2,6-dioxopiperidin-3-yl)-1,3-dioxo-2,3-dihydro-1H-isoindol-5-yl]piperidin-4-yl}methyl)amino]piperidin-1-yl}-1,3,4-thiadiazol-2-yl)-4-[(propan-2-yl)amino]pyridin-2-yl]pyrrolo[1,2-b]pyridazine-3-carbonitrile] | 9.10 | 9.10 | 96 | 99 | 232 | 231 |
